Data taken from ChEMBL document CHEMBL5331122, “Structure-Activity Relationship Study of Antimicrobial Peptide PE2 Delivered Novel Linear Derivatives with Potential of Eradicating Biofilms and Low Incidence of Drug Resistance” (J Med Chem, 2023).
Values after ≈ are worked out from the molar mass of the structure shown. Active and inactive are the calls of the source. No cut-off for these calls is given here.

How the values were obtained:
[1] = system: Escherichia coli; test: Antibacterial activity against Escherichia coli ATCC 25922 assessed as fold increase in MIC in presence of NaCl; assay type: functional
[2] = system: Escherichia coli; test: Additive antibacterial activity against Escherichia coli ATCC 25922 assessed as bacterial growth inhibition incubated for 18 hrs in presence of gentamycin by checkerboard assay; assay type: functional, organism-based
[3] = system: Klebsiella pneumoniae; test: Antibacterial activity against Klebsiella pneumoniae ATCC 700603 infected in BALB/c mouse pneumonia model assessed as alveolar expansion at 5 to 10 mg/kg, ip measured at 4 to 12 hrs by hematoxylin and eosin staining based analysis; assay type: functional, organism-based; conditions: dose 5-10 mg/kg, time 4-12 hrs
[4] = Cytotoxicity against human HEK293T cells assessed as inhibition of cell growth incubated for 24 hrs by resazurin dye based analysis; assay type: toxicity, HEK-293T
[5] = system: Escherichia coli; test: Additive antibacterial activity against Escherichia coli ATCC 25922 assessed as bacterial growth inhibition incubated for 18 hrs in presence of rifampicin by checkerboard assay; assay type: functional, organism-based
[6] = system: Cell membrane; test: Induction of cell membrane damage in Escherichia coli ATCC 25922 at 2 times MIC after 0.5 to 2 hrs by propidium iodide staining based flow cytometer assay; assay type: subcellular; conditions: time 0.5-2 hrs
[7] = system: Klebsiella pneumoniae; test: Antibacterial activity against Klebsiella pneumoniae ATCC 700603 infected in BALB/c mouse pneumonia model assessed as reduction in infiltration of inflammatory cells at 5 to 10 mg/kg, ip measured at 4 to 12 hrs by hematoxylin and eosin staining based analysis; assay type: functional, organism-based; conditions: dose 5-10 mg/kg, time 4-12 hrs
[8] = system: Cell membrane; test: Induction of outer membrane permeabilization in Escherichia coli ATCC 25922 assessed as increase in fluorescence intensity at 1 times MIC measured for 12 hrs by NPN uptake assay; assay type: subcellular
[9] = system: Klebsiella pneumoniae; test: Antibacterial activity against Klebsiella pneumoniae ATCC 700603 infected in BALB/c mouse pneumonia model assessed as reduction in lung bacterial load at 5 to 10 mg/kg, ip measured at 4 to 12 hrs; assay type: functional, organism-based; conditions: dose 5-10 mg/kg, time 4-12 hrs
[10] = system: Staphylococcus aureus; test: Additive antibacterial activity against Staphylococcus aureus ATCC 25923 assessed as bacterial growth inhibition incubated for 18 hrs in presence of gentamycin by checkerboard assay; assay type: functional, organism-based
[11] = system: Staphylococcus aureus; test: Antibacterial activity against gentamycin-resistant Staphylococcus aureus ATCC 25923 assessed as reduction in bacterial growth incubated for 18 hrs by broth microdilution method; assay type: functional
[12] = system: Escherichia coli; test: Inhibition of biofilm formation in Escherichia coli ATCC 25922 assessed as inhibition of biofilm formation at 1 to 2 times MIC incubated for 24 hrs by crystal violet staining based analysis; assay type: functional, organism-based
[13] = system: Erythrocyte; test: Hemolytic activity in mouse red blood cell assessed as hemolysis incubated for 1 hr; assay type: toxicity, cell-based; conditions: dose 4-256 µg/ml
[14] = system: Escherichia coli; test: Bactericidal activity against Escherichia coli ATCC 25922 assessed as inhibition of bacterial growth at 1/2 times MIC measured at 180 mins by time-kill assay; assay type: functional, organism-based
[15] = system: Staphylococcus aureus; test: Induction of membrane morphological changes in Staphylococcus aureus ATCC 25923 assessed as appearance of blistered bacterial cells at 4 times MIC measured at 0.5 to 2 hrs by SEM analysis; assay type: functional, organism-based; conditions: time 0.5-2 hrs
[16] = system: Escherichia coli; test: Antibacterial activity against gentamycin-resistant Escherichia coli ATCC 25922 assessed as reduction in bacterial growth incubated for 18 hrs by broth microdilution method; assay type: functional
[17] = system: Escherichia coli; test: Bactericidal activity against Escherichia coli ATCC 25922 assessed as inhibition of bacterial growth at 0.5 to 2 times MIC by time-kill assay; assay type: functional, organism-based; conditions: time <= 360.0 min, TDE = time-dependent effect
[18] = Acute toxicity in ip dosed Kunming mouse assessed as lethal dose measured upto 7 days; assay type: organism-based; conditions: in vivo, time < 7 day; for LD50 at 168 h: Kunming
[19] = system: Staphylococcus aureus; test: Antibacterial activity against Staphylococcus aureus ATCC 25923 assessed as fold increase in MIC in presence of KCl; assay type: functional
[20] = system: Klebsiella pneumoniae; test: Antibacterial activity against Klebsiella pneumoniae ATCC 700603 infected in BALB/c mouse pneumonia model at 5 to 10 mg/kg, ip measured at 4 to 12 hrs; assay type: functional, organism-based; conditions: dose 5-10 mg/kg, time 4-12 hrs
[21] = system: Staphylococcus aureus; test: Antibacterial activity against Staphylococcus aureus ATCC 25923 assessed as bacterial growth inhibition incubated for 18 hrs by broth microdilution method; assay type: functional
[22] = system: Staphylococcus aureus; test: Bactericidal activity against Staphylococcus aureus ATCC 25923 assessed as inhibition of bacterial growth at 0.5 to 2 times MIC measured at 120 mins by time-kill assay; assay type: functional, organism-based
[23] = system: Escherichia coli; test: Bactericidal activity against Escherichia coli ATCC 25922 assessed as inhibition of bacterial growth at 0.5 to 2 times MIC measured at 120 mins by time-kill assay; assay type: functional, organism-based
[24] = system: Escherichia coli; test: Induction of membrane morphological changes in Escherichia coli ATCC 25922 at 4 times MIC measured at 0.5 to 2 hrs by SEM analysis; assay type: functional, organism-based; conditions: time 0.5-2 hrs
[25] = system: Staphylococcus aureus; test: Antibacterial activity against Staphylococcus aureus ATCC 25923 assessed as fold increase in MIC in presence of ZnCl2; assay type: functional
[26] = system: Staphylococcus aureus; test: Induction of membrane morphological changes in Staphylococcus aureus ATCC 25923 assessed as appearance of adherent bacterial cells at 4 times MIC measured at 0.5 to 2 hrs by SEM analysis; assay type: functional, organism-based; conditions: time 0.5-2 hrs
[27] = system: Staphylococcus aureus; test: Additive antibacterial activity against Staphylococcus aureus ATCC 25923 assessed as bacterial growth inhibition incubated for 18 hrs in presence of rifampicin by checkerboard assay; assay type: functional, organism-based
[28] = Acute toxicity in Kunming mouse assessed as survival rate at 20 mg/kg, ip measured for 7 days; assay type: organism-based; conditions: in vivo, 168 h, time 7 day
[29] = system: Klebsiella pneumoniae; test: Antibacterial activity against Klebsiella pneumoniae ATCC 700603 assessed as bacterial growth inhibition incubated for 18 hrs by broth microdilution method; assay type: functional
[30] = system: Staphylococcus aureus; test: Inhibition of biofilm formation in Staphylococcus aureus ATCC 25923 assessed as inhibition of biofilm formation at 1/2 times MIC incubated for 24 hrs by crystal violet staining based analysis; assay type: functional, organism-based
[31] = system: Cell membrane; test: Induction of inner membrane permeabilization in Escherichia coli ML-35 ATCC 43837 assessed as increase in fluorescence intensity at 1 to 4 times MIC incubated upto 150 mins by ONPG staining based analysis; assay type: subcellular
[32] = system: Escherichia coli; test: Antibacterial activity against rifampicin-resistant Escherichia coli ATCC 25922 assessed as reduction in bacterial growth incubated for 18 hrs by broth microdilution method; assay type: functional
[33] = system: Staphylococcus aureus; test: Antimicrobial activity against methicillin-resistant Staphylococcus aureus ATCC 33591 assessed as inhibition of microbial growth incubated for 18 hrs by broth microdilution analysis; assay type: functional, organism-based; conditions: ATCC 33591, 18 h
[34] = system: Escherichia coli; test: Antibacterial activity against Escherichia coli ATCC 25922 assessed as bacterial growth inhibition incubated for 18 hrs by broth microdilution method; assay type: functional
[35] = system: Staphylococcus aureus; test: Antibiofilm activity against Staphylococcus aureus ATCC 25923 assessed as biofilm eradication at 1 times MIC incubated for 24 hrs; assay type: functional, organism-based
[36] = system: Escherichia coli; test: Bactericidal activity against Escherichia coli ATCC 25922 assessed as inhibition of bacterial growth at 1 times MIC measured at 180 mins by time-kill assay; assay type: functional, organism-based
[37] = system: Escherichia coli; test: Antimicrobial activity against Escherichia coli ATCC 25922 assessed as reduction in microbial growth measured for 18 hrs in presence of 64 microg/ml LPS; assay type: functional, organism-based
[38] = system: Staphylococcus aureus; test: Additive antibacterial activity against gentamycin-resistant Staphylococcus aureus ATCC 25923 incubated for 18 hrs in presence of gentamycin by checkerboard assay; assay type: functional, organism-based

Compound | fold change (FC) [1] | Activity [2] | Activity [3] | IC50 at 24 h [4] [µg/mL] | Activity [6] | Activity [8] | inhibition [12] | Activity [14] | Activity [15] | Activity [17] | fold change (FC) [19] | MIC [21] [µg/mL] | Activity [24] | fold change (FC) [25] | Activity [26] | MIC [29] [µg/mL] | inhibition [30] | Activity [31] | MIC [34] [µg/mL] | Activity [35] | further results
CCCCCCCC(=O)N[C@@H](CCN)C(=O)N[C@H](C(=O)N[C@@H](CCN)C(=O)N[C@H](Cc1ccccc1)C(=O)N[C@@H](CC(C)C)C(=O)N[C@@H](CCN)C(=O)N[C@@H](C(=O)N[C@@H](CC(C)C)C(=O)N[C@@H](Cc1ccc(O)cc1)C(N)=O)C(C)C)[C@@H](C)CC | <=2 | Active | Active | 24.2 (≈ 20.3 µM) | Active | inactive | Active | Active | Active | Tde | <=2 | 8 (≈ 6.71 µM) | Active | <=2 | Active | 8 (≈ 6.71 µM) | Active | Active | 4 (≈ 3.35 µM) | inactive | Activity [5]: Active; Activity [7]: Active; Activity [9]: Active; Activity [10]: Active; MIC [11]: 8 µg/mL (≈ 6.71 µM); HC10 [13]: 128 µg/mL; MIC [16]: 2 µg/mL (≈ 1.68 µM); LD50 at 168 h [18]: 33.6 mg/kg; LD ([18]; ip, 168 h): 80 mg/kg; Activity [20]: Active; Activity [22]: Active; Activity [23]: Active; Activity [27]: Active; Activity [28]: Non-Toxic; MIC [32]: < 8 µg/mL; EC50 [33]: 2.99 µg/mL; Activity [36]: Active
CCCCCCC(=O)N[C@@H](CCN)C(=O)N[C@H](C(=O)N[C@@H](CCN)C(=O)N[C@H](Cc1ccccc1)C(=O)N[C@@H](CC(C)C)C(=O)N[C@@H](CCN)C(=O)N[C@@H](C(=O)N[C@@H](CC(C)C)C(=O)N[C@@H](Cc1ccc(O)cc1)C(N)=O)C(C)C)[C@@H](C)CC | <=2 | – | Active | 32.5 (≈ 27.6 µM) | Active | Active | Active | Active | Active | Tde | <=2 | 8 (≈ 6.79 µM) | Active | <=2 | Active | 8 (≈ 6.79 µM) | Active | Active | 8 (≈ 6.79 µM) | inactive | Activity [37]: Active; Activity [7]: Active; Activity [9]: Active; MIC [11]: 8 µg/mL (≈ 6.79 µM); HC10 [13]: 512 µg/mL; MIC [16]: 4 µg/mL (≈ 3.39 µM); Activity [38]: Active; LD50 at 168 h [18]: 32 mg/kg; Activity [20]: Active; Activity [23]: Active; Activity [28]: Non-Toxic; MIC [32]: < 8 µg/mL; EC50 [33]: 4.65 µg/mL; Activity [36]: Active
CC[C@H](C)[C@@H]1NC(=O)[C@H](CCN)NC(=O)C[C@@H](C(C)C)OC(=O)[C@H]([C@@H](C)O)NC(=O)[C@H](CC(C)C)NC(=O)[C@@H](C(C)C)NC(=O)[C@H](CCN)NC(=O)[C@H](CC(C)C)NC(=O)[C@@H](Cc2ccccc2)NC(=O)[C@H](CCN)NC1=O | <=2 | Active | – | 29.2 (≈ 26.5 µM) | Active | Active | Active | Active | Active | Tde | <=2 | 8 (≈ 7.26 µM) | Active | <=2 | Active | 4 (≈ 3.63 µM) | Active | Active | 8 (≈ 7.26 µM) | inactive | Activity [5]: Active; Activity [37]: Active; Activity [10]: Active; Activity [38]: Active; Activity [22]: Active; Activity [27]: Active
